How the values were obtained:
CDK2/Cyclin E1 = CDK2/Cyclin E1 (Homo sapiens, UniProt P24941); test: ADP-Glo Luminescent Kinase Assay (CDK2/E1-37C); assay type: biochemical; settings: 0.18 nM CDK2/Cyclin E1, 100 μM ATP, Histone H1, 37° C.; read-out: ADPGLO (CDK2/E1-37C): IC50
Method in brief: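 Activated CDK2/Cyclin E1 (0.18 nM final) preincubated with compound 60 min at 37 °C, then reacted with 100 μM ATP and Histone H1 ([…]) for 90 min at 37 °C in HEPES pH 7.5 buffer. ADP-Glo luminescence normalized to % activity; IC50 from four-parameter fit.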

Kuramochi cells RB-WT = test: IncuCyte Kuramochi cell proliferation assay, RB-WT; assay type: cell-based; settings: 72 hours, cell count
Method in brief: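 mApple-H2B-labelled Kuramochi cells were treated with a 10-point, half-log series (top 20 µM) and imaged at 0 and 72 h. Fluorescent nuclei were counted, and the 0–72 h fold change was normalized to DMSO wells. GI50 came from dose-response fits.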

Kuramochi cells RB-KO = test: IncuCyte Kuramochi cell proliferation assay, RB-KO; assay type: cell-based; settings: 72 hours, cell count, batch mean
Procedure: IncuCyte® assay was used to measure the effect of disclosed compounds on cell proliferation. Fluorescent microscopy images of cells were taken immediately after compound treatment and 72 hours later. Image analysis software was used to obtain cell counts as a function of compound concentration. Kuramochi cells labeled with mApple-H2B were seeded on 384-well assay-ready plates. Plates were placed in an IncuCyte® (Sartorius) and scanned at 0 and 72 hours. IncuCyte® software was used to count the number of fluorescent nuclei in each well. The fold change in cell count from 0 to 72 hours in wells treated with increasing compounds concentrations (10 pts, 1/2 log dilution, 20 µM top concentration) was normalized to DMSO control wells. The normalized cell counts were fit with dose response curves and a GI50 was calculated.

Row | IC50 (CDK2/Cyclin E1) [µM] | SMILES | IC50 (Kuramochi cells RB-WT) [µM] | IC50 (Kuramochi cells RB-KO) [µM]
1 | ≤ 0.5 | CC(C)(C(=O)N1CC2(CN(C(=O)c3cnn(Cc4ccc(F)cc4)c3)CC2COCc2cc(F)cc(C3CCC(F)(F)CC3)c2C(=O)O)C1)C(F)(F)F (stereo not drawn) [I′-68, 2-(4,4-difluorocyclohexyl)-4-fluoro-6-(((6-(1-(4-fluorobenzyl)-1H-pyrazole-4-carbonyl)-2-(3,3,3-trifluoro-2,2-dimethylpropanoyl)-2,6-diazaspiro[3.4]octan-8-yl)methoxy)methyl)benzoic acid] | 5 to 10 | > 10
2 | ≤ 0.5 | CC1(C)C[C@@H]1C(=O)N1CC2(CN(C(=O)c3cnn(Cc4ccc(F)cc4)c3)CC2COCc2cccc(C3CCC4(CCC4)CC3)c2C(=O)O)C1 (stereo partly drawn) [Compound I-88, 2-(((2-((S)-2,2-dimethylcyclopropane-1-carbonyl)-6-(1-(4-fluorobenzyl)-1H-pyrazole-4-carbonyl)-2,6-diazaspiro[3.4]octan-8-yl)methoxy)methyl)-6-(spiro[3.5]nonan-7-yl)benzoic acid] | 0.5 to 5 | > 10
3 | 0.5 to 5 | CC(C)(Oc1c(COC[C@@H]2CN(C(=O)c3cnn(Cc4ccc(F)cc4)c3)CC23CN(C(=O)C2(C(F)(F)F)CC2)C3)cccc1C1CCC(C(F)(F)F)CC1)C(=O)O (stereo partly drawn) [Compound I-108] | > 10 | > 10
4 | ≤ 0.5 | CC1(C)C[C@@H]1C(=O)N1CC2(CN(C(=O)c3cnn(Cc4ccc(F)cc4)c3)C[C@H]2COCc2cccc(C3CCC(F)(F)CC3)c2C#N)C1 [I′-42, 2-(4,4-difluorocyclohexyl)-6-((((S)-2-((S)-2,2-dimethylcyclopropane-1-carbonyl)-6-(1-(4-fluorobenzyl)-1H-pyrazole-4-carbonyl)-2,6-diazaspiro[3.4]octan-8-yl)methoxy)methyl)benzonitrile] | 0.5 to 5 | 0.5 to 5
5 | ≤ 0.5 | COc1ccc(C2CCC(F)(F)CC2)c(C(=O)O)c1COCC1CN(C(=O)c2cnn(Cc3ccc(F)cc3)c2)CC12CN(C(=O)C1(C(F)(F)F)CC1)C2 (stereo not drawn) [I′-67] | > 10 | > 10
6 | ≤ 0.5 | CC1(C)C[C@@H]1C(=O)N1CC2(CN(C(=O)c3cnn(Cc4ccc(F)cc4)c3)C[C@H]2COCc2cccc(C3CCC(F)(F)CC3)c2C(=O)NCCN2CCOCC2)C1 [I′-25, 2-(4,4-difluorocyclohexyl)-6-((((S)-2-((S)-2,2-dimethylcyclopropane-1-carbonyl)-6-(1-(4-fluorobenzyl)-1H-pyrazole-4-carbonyl)-2,6-diazaspiro[3.4]octan-8-yl)methoxy)methyl)-N-(2-morpholinoethyl)benzamide] | > 10 | > 10
7 | ≤ 0.5 | O=C(O)Cc1c(COC[C@@H]2CN(C(=O)c3cnn(Cc4ccc(F)cc4)c3)CC23CN(C(=O)C2(C(F)(F)F)CC2)C3)cccc1C1CCC(C(F)(F)F)CC1 (stereo partly drawn) [Compound I-102, (S)-2-(2-(((6-(1-(4-fluorobenzyl)-1H-pyrazole-4-carbonyl)-2-(1-(trifluoromethyl)cyclopropane-1-carbonyl)-2,6-diazaspiro[3.4]octan-8-yl)methoxy)methyl)-6-(4-(trifluoromethyl)cyclohexyl)phenyl)acetic acid] | 0.5 to 5 | > 10
8 | ≤ 0.5 | CC1(C)C[C@@H]1C(=O)N1CC2(CN(C(=O)c3cnn(Cc4ccc(F)cc4)c3)CC2COc2cccc(C3CCC(F)(F)CC3)c2C(=O)O)C1 (stereo partly drawn) [Compound I-128, 2-(4,4-difluorocyclohexyl)-6-((2-((S)-2,2-dimethylcyclopropane-1-carbonyl)-6-(1-(4-fluorobenzyl)-1H-pyrazole-4-carbonyl)-2,6-diazaspiro[3.4]octan-8-yl)methoxy)benzoic acid] | > 10 | > 10
9 | 0.5 to 5 | CC1(C(=O)N2CC3(CN(C(=O)c4cnn(Cc5ccc(F)cc5)c4)C[C@H]3COCc3cccc(C4CCC(C(F)(F)F)CC4)c3C(=O)O)C2)CCO1 (stereo partly drawn) [Compound I-93, 2-((((8S)-6-(1-(4-fluorobenzyl)-1H-pyrazole-4-carbonyl)-2-(2-methyloxetane-2-carbonyl)-2,6-diazaspiro[3.4]octan-8-yl)methoxy)methyl)-6-(4-(trifluoromethyl)cyclohexyl)benzoic acid] | > 10 | > 10
10 | ≤ 0.5 | CS(=O)(=O)NC(=O)c1c(COC[C@@H]2CN(C(=O)c3cnn(Cc4ccc(F)cc4)c3)CC23CN(C(=O)C2(C(F)(F)F)CC2)C3)cccc1C1CCC(F)(F)CC1 [I′-44, (S)-2-(4,4-difluorocyclohexyl)-6-(((6-(1-(4-fluorobenzyl)-1H-pyrazole-4-carbonyl)-2-(1-(trifluoromethyl)cyclopropane-1-carbonyl)-2,6-diazaspiro[3.4]octan-8-yl)methoxy)methyl)-N-(methylsulfonyl)benzamide] | 0.5 to 5 | > 10
11 | ≤ 0.5 | CC(C)(C(=O)N1CC2(CN(C(=O)c3cnn(Cc4ccc(F)cc4)c3)C[C@H]2COCc2cccc(C3CCC(F)(F)CC3)c2C(=O)NCCN2CCOCC2)C1)C(F)(F)F [I′-22] | > 10 | > 10
12 | ≤ 0.5 | O=C(c1cnn(Cc2ccc(F)cc2)c1)N1CC(COCc2cccc(C3CCC(F)(F)CC3)c2-c2n[nH]c(=O)o2)C2(C1)CN(C(=O)C1(C(F)(F)F)CC1)C2 (stereo not drawn) [I′-63, 5-(2-(4,4-difluorocyclohexyl)-6-(((6-(1-(4-fluorobenzyl)-1H-pyrazole-4-carbonyl)-2-(1-(trifluoromethyl)cyclopropane-1-carbonyl)-2,6-diazaspiro[3.4]octan-8-yl)methoxy)methyl)phenyl)-1,3,4-oxadiazol-2(3H)-one] | > 10 | > 10

The next lines start with the molecule.

Row | SMILES | IC50 (CDK2/Cyclin E1) [µM] | IC50 (Kuramochi cells RB-WT) [µM] | IC50 (Kuramochi cells RB-KO) [µM]
13 | CC(C)(C(=O)N1CC2(CN(C(=O)c3cnn(Cc4ccc(F)cc4)c3)C[C@H]2COCc2cccc(-c3ccc(F)cc3)c2C(=O)O)C1)C(F)(F)F [I′-38] | ≤ 0.5 | 5 to 10 | > 10
14 | CC(C)(C)OC(=O)c1c(COCC2CN(C(=O)c3cnn(Cc4ccc(F)cc4C(F)(F)F)c3)CC23CN(C(=O)C2(C(F)(F)F)CC2)C3)cccc1C1CCC(C(F)(F)F)CC1 (stereo not drawn) [I′-83] | 0.5 to 5 | > 10 | > 10
15 | CC(C)(C(=O)N1CC2(CN(C(=O)c3cnn(Cc4ccc(F)cc4)c3)C[C@H]2COCc2cccc(-c3ccccc3C(=O)O)c2)C1)C(F)(F)F [I′-40] | 0.5 to 5 | 0.5 to 5 | 5 to 10
16 | O=C(O)c1c(COC[C@@H]2CN(C(=O)c3c[nH]nc3Cc3ccccc3)CC23CN(C(=O)C2(C(F)(F)F)CC2)C3)cccc1C1CCC(C(F)(F)F)CC1 (stereo partly drawn) [Compound I-73] | 0.5 to 5 | > 10 | > 10
17 | CC(C)(C(=O)N1CC2(CN(C(=O)c3cnn(Cc4cc(F)c(F)cc4F)c3)C[C@H]2COCc2cccc(C3CCC(F)(F)CC3)c2C(=O)O)C1)C(F)(F)F [I′-52, (S)-2-(4,4-difluorocyclohexyl)-6-(((2-(3,3,3-trifluoro-2,2-dimethylpropanoyl)-6-(1-(2,4,5-trifluorobenzyl)-1H-pyrazole-4-carbonyl)-2,6-diazaspiro[3.4]octan-8-yl)methoxy)methyl)benzoic acid] | ≤ 0.5 | 0.5 to 5 | > 10
18 | O=C(O)c1c(COC[C@@H]2CN(C(=O)c3cnn(Cc4ccc(Cl)cc4F)c3)CC23CN(C(=O)C2(C(F)(F)F)CC2)C3)cccc1C1CCC(C(F)(F)F)CC1 (stereo in doubt) [Compound I-71, 2-(((6-(1-(4-chloro-2-fluorobenzyl)-1H-pyrazole-4-carbonyl)-2-(1-(trifluoromethyl)cyclopropane-1-carbonyl)-2,6-diazaspiro[3.4]octan-8-yl)methoxy)methyl)-6-(4-(trifluoromethyl)cyclohexyl)benzoic acid] | ≤ 0.5 | > 10 | > 10
19 | O=C(O)c1c(COC[C@@H]2CN(C(=O)c3cnn(Cc4ccc(C(F)(F)F)cc4)c3)CC23CN(C(=O)C2(C(F)(F)F)CC2)C3)cccc1N1CCC(C(F)(F)F)CC1 [Compound I-72] | 0.5 to 5 | > 10 | > 10
20 | CC(C)(C(=O)N1CC2(CN(C(=O)c3cnn(Cc4ccc(F)cc4)c3)C[C@H]2COCc2cccc(-c3cccc(F)c3)c2C(=O)O)C1)C(F)(F)F [I′-28] | ≤ 0.5 | 5 to 10 | > 10
21 | CC1(C)C[C@@H]1C(=O)N1CC2(CN(C(=O)c3cnn(Cc4ccc(F)cc4)c3)CC2COCc2cccc(C3CCC(C(F)(F)F)CC3)c2C(N)=O)C1 (stereo partly drawn) [I′-84, 2-(((2-((S)-2,2-dimethylcyclopropane-1-carbonyl)-6-(1-(4-fluorobenzyl)-1H-pyrazole-4-carbonyl)-2,6-diazaspiro[3.4]octan-8-yl)methoxy)methyl)-6-(4-(trifluoromethyl)cyclohexyl)benzamide] | ≤ 0.5 | > 10 | > 10
22 | O=C(O)c1c(COC[C@@H]2CN(C(=O)c3cnn(Cc4ccc(F)cc4C(F)(F)F)c3)CC23CN(C(=O)C2(C(F)(F)F)CC2)C3)cccc1C1CCC(C(F)(F)F)CC1 (stereo partly drawn) [Compound I-76] | ≤ 0.5 | 5 to 10 | > 10

From US20260034123A1 (Cedilla Therapeutics, Inc., priority 2022, published 2026)
